Assay results as given in ChEMBL document CHEMBL1944604, “Aminopurine based JNK inhibitors for the prevention of ischemia reperfusion injury” (Bioorg Med Chem Lett, 2012).
In brackets after ≈: the same amount, converted by molar mass.

Assays:
[1] = Aqueous solubility of the compound at pH 7.4; type: physicochemical
[2] = Metabolic stability in rat liver S9 fraction assessed as compound remaining after 60 mins; type: ADME, subcellular; settings: read-out: Stability
[3] = Half life in rat microsomes; type: ADME, Microsome
[4] = Half life in human microsomes; type: ADME, Microsome
[5] = molecular target: Mitogen-activated protein kinase 14 (Homo sapiens, UniProt Q16539); test: Inhibition of p38alpha using MBP and [gamma33P]ATP as substrate after 60 mins by scintillation counting
Sequence of Mitogen-activated protein kinase 14 (Q16539 whole entry): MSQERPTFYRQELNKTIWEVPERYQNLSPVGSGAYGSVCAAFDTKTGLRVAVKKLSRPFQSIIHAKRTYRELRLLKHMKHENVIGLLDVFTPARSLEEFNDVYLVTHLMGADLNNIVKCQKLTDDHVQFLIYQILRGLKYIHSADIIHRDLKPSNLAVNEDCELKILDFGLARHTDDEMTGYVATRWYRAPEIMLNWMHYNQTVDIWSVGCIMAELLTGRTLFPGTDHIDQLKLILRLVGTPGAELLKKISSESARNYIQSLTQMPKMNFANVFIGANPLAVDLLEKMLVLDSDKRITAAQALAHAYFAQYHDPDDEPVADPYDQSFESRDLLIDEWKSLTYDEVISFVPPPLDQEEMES

[6] = molecular target: Mitogen-activated protein kinase 8 (Homo sapiens, UniProt P45983); test: Inhibition of full length Hexa-His-tagged JNK1 using GST-tagged cJun and [gamma33P]ATP as substrate after 60 mins by scintillation counting
Sequence of Mitogen-activated protein kinase 8 (P45983 whole entry): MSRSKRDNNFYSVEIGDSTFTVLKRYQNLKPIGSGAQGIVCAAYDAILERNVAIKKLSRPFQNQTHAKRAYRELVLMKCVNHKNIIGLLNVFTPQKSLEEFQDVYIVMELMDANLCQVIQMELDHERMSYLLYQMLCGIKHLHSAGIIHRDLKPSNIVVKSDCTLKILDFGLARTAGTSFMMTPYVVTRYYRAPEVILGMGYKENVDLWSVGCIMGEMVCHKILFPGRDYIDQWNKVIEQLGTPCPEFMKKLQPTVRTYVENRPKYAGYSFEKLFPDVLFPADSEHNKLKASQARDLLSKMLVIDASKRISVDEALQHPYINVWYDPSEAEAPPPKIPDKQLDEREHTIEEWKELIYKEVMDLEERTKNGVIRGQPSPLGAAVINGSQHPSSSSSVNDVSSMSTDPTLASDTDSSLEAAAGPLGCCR

[7] = Metabolic stability in human liver S9 fraction assessed as compound remaining after 60 mins; type: ADME, subcellular; settings: read-out: Stability
[8] = molecular target: Mitogen-activated protein kinase 9 (Homo sapiens, UniProt P45984); test: Inhibition of full length Hexa-His-tagged JNK2 using GST-tagged cJun and [gamma33P]ATP as substrate after 60 mins by scintillation counting
Sequence of Mitogen-activated protein kinase 9 (P45984 whole entry): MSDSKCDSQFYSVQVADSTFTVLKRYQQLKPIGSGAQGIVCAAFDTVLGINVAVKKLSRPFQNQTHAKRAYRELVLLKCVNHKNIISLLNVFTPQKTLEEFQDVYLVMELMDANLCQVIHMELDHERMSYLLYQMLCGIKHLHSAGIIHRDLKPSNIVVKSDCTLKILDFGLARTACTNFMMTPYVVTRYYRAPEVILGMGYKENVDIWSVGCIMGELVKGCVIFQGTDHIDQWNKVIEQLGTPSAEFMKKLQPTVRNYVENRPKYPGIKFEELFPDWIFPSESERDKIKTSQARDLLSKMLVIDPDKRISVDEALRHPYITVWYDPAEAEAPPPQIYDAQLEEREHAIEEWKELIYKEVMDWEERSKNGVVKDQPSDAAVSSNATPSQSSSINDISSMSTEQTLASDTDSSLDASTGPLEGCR

[9] = molecular target: Mitogen-activated protein kinase 10 (Homo sapiens, UniProt P53779); test: Inhibition of full length Hexa-His-tagged JNK3 using GST-tagged cJun and [gamma33P]ATP as substrate after 60 mins by scintillation counting
Sequence of Mitogen-activated protein kinase 10 (P53779 whole entry): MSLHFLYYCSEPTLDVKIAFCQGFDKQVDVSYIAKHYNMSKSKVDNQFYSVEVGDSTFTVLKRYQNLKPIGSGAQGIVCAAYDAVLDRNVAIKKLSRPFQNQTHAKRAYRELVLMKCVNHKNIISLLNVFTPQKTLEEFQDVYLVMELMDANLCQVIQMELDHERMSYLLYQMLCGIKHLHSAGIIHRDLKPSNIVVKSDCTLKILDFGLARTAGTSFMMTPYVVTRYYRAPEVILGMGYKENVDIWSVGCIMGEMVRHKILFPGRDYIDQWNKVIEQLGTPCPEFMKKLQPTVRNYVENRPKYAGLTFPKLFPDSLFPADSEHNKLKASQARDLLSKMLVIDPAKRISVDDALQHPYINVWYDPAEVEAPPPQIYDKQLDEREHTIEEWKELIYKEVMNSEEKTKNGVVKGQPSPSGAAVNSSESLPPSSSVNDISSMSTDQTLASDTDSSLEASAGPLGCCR

[10] = Aqueous solubility of the compound at pH 5; type: physicochemical
[11] = Clearance in rat at 2 to 10 mg/kg, iv; type: ADME, organism-based; design: dose 2-10 mg/kg, route intravenous; settings: in vivo
[12] = Thermodynamic solubility of the compound at pH 5; type: physicochemical; settings: buffer, read-out: Therm_solubility
[13] = Volume of distribution at steady state in rat at 2 to 10 mg/kg, iv; type: ADME, organism-based; design: dose 2-10 mg/kg, route intravenous; settings: in vivo, read-out: Vdss
[14] = molecular target: c-Jun N-terminal kinase, JNK (Homo sapiens, UniProt P45983+P53779+P45984); test: Inhibition of JNK-mediated cJun phosphorylation in anisomysin-stimulated human Jurkat T cells pretreated for 30 mins before anisomysin stimulation measured after 10 mins by DELFIA assay; type: cell-based

| SMILES | solubility [1] [µg/mL] | remaining at 1 h [2] [%] | half-life [3] [h] | half-life [4] [h] | IC50 [5] [nM] | IC50 [6] [nM] | remaining at 1 h [7] [%] | IC50 [8] [nM] | IC50 [9] [nM] | solubility [10] [µg/mL] | clearance [11] [mL/min/kg] | solubility thermodynamic [12] [µg/mL] | Vd [13] [L/kg] | IC50 [14] [nM] |
| --- | --- | --- | --- | --- | --- | --- | --- | --- | --- | --- | --- | --- | --- | --- |
| COc1ccc(Nc2ncc3nc(Nc4ccccc4F)n(C4CCCC4)c3n2)cc1 | 447 (≈ 1070 µM) | 35 | 1.68 | 1.03 | > 3000 | 1100 | 86 | 120 | – | – | – | – | – | – |
| COc1ccc(Nc2ncc3nc(Nc4ccccc4F)n([C@H]4CC[C@@H](C(N)=O)CC4)c3n2)cc1 | – | – | – | – | 240 | 180 | – | 22 | 24 | – | – | – | – | – |
| Cl.N[C@H]1CC[C@H](Nc2ncc3nc(Nc4ccc(F)cc4F)n(C4CCCC4)c3n2)CC1 | – | – | – | – | – | – | – | – | – | 5.7 | – | – | – | – |
| COc1ccc(Nc2ncc3nc(Nc4ccccc4F)n(C(C)C)c3n2)cc1 | – | – | – | – | 2100 | 840 | – | 83 | 96 | – | – | – | – | – |
| COc1ccc(Nc2ncc3nc(Nc4ccccc4F)n([C@H]4CC[C@H](N)CC4)c3n2)cc1 | – | – | – | – | 210 | 2600 | – | 240 | 240 | – | – | – | – | – |
| COc1ccc(Nc2ncc3nc(Nc4ccccc4F)n(C4CCOCC4)c3n2)cc1 | – | – | – | – | 2800 | 490 | – | 52 | 63 | – | – | – | – | – |
| COc1ccc(Nc2ncc3nc(Nc4ccccc4Cl)n(C4CCCC4)c3n2)cc1 | – | > 70 | – | – | > 30000 | > 10000 | > 70 | > 10000 | > 10000 | – | – | – | – | – |
| COc1ccc(Nc2ncc3nc(Nc4c(F)cccc4F)n(C4CCCC4)c3n2)cc1 | – | > 70 | – | – | 3500 | 1100 | > 70 | 46 | 130 | – | – | – | – | – |
| CC(C)Nc1ncc2nc(Nc3ccccc3F)n(C3CCCC3)c2n1 | – | – | – | – | 1200 | 800 | – | 66 | 110 | – | – | – | – | – |
| N[C@H]1CC[C@H](Nc2ncc3nc(Nc4c(F)cccc4F)n(C4CCCC4)c3n2)CC1 | – | – | – | – | 490 | 91 | – | 9 | 13 | – | 118 | 852 (≈ 1990 µM) | 66 | 210 |
| N[C@H]1CC[C@H](Nc2ncc3nc(Nc4c(F)cc(F)cc4F)n(C4CCCC4)c3n2)CC1 | – | – | – | – | 490 | 150 | – | 11 | 16 | – | 88 | > 1000 | 90 | 240 |
| COc1ccc(Nc2ncc3nc(Nc4ccc(F)cc4F)n(C4CCCC4)c3n2)cc1 | – | > 70 | – | – | 1300 | 2500 | > 70 | 130 | 140 | – | – | – | – | – |
| CNc1ncc2nc(Nc3ccccc3F)n(C3CCCC3)c2n1 | – | – | – | – | > 30000 | 6300 | – | 360 | 680 | – | – | – | – | – |
| COc1ccc(Nc2ncc3nc(Nc4ccccc4F)n([C@H]4CC[C@@H](O)CC4)c3n2)cc1 | – | – | – | – | 1600 | 160 | – | 14 | 17 | – | – | – | – | – |
| O[C@H]1CC[C@H](Nc2ncc3nc(Nc4ccccc4F)n(C4CCCC4)c3n2)CC1 | < 2.5 | – | – | – | 510 | 75 | – | 10 | 12 | – | – | – | – | – |
| CCn1c(Nc2ccccc2F)nc2cnc(Nc3ccc(OC)cc3)nc21 | – | – | – | – | 9300 | 3600 | – | 430 | 360 | – | – | – | – | – |
| COc1ccc(Nc2ncc3nc(Nc4ccccc4F)n(-c4ccccc4)c3n2)cc1 | – | – | – | – | > 3000 | > 10000 | – | 1000 | > 300 | – | – | – | – | – |
| Fc1ccccc1Nc1nc2cnc(NC3CCCCC3)nc2n1C1CCCC1 | – | – | – | – | 1500 | 580 | – | 46 | 50 | – | – | – | – | – |
| COc1ccc(Nc2ncc3nc(Nc4ccccc4F)n(C4CCCCC4)c3n2)cc1 | – | – | – | – | > 3000 | 2900 | – | 140 | 360 | – | – | – | – | – |
| COc1ccc(Nc2ncc3nc(Nc4ccccc4)n(C4CCCC4)c3n2)cc1 | – | > 70 | – | – | > 30000 | > 10000 | > 70 | 800 | > 1000 | – | – | – | – | – |
| CCNc1ncc2nc(Nc3ccccc3F)n(C3CCCC3)c2n1 | – | – | – | – | 2600 | 1800 | – | 140 | 260 | – | – | – | – | – |
| N[C@H]1CC[C@H](Nc2ncc3nc(Nc4ccccc4F)n(C4CCCC4)c3n2)CC1 | – | – | – | – | 210 | 230 | – | 26 | 31 | – | – | 869 (≈ 2120 µM) | – | 300 |
